# Laboratory results taken from PubChem BioAssay AID2060505 (Molecular Pharmacology Branch, DTP, NCI, 2025).
# Tested on: 633275-114-R-J1-PDC complex spheroids, viability
# Experiment: Anticancer human tumor 633275-114-R-J1-PDC patient-derived endometrial adenocarcinoma cell line growth inhibition [GQUAD]
# Details: for IC50: curve of first compound; for viability, T/C: stronger effect = lower value
# Summary of the method: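 Viability of tumor cells grown as complex spheroids with endothelial and stromal cells, exposed to drug combinations. Top concentration at or near clinical Cmax (else 10 microM), diluted in half-log increments.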
# [1] = second compound 0.0316 µM, first compound 0.0316 µM
# [2] = second compound 0.0316 µM, first compound 0.1 µM
# [3] = second compound 0.0316 µM, first compound 0.316 µM
# [4] = second compound 0.0316 µM, first compound 1 µM
# [5] = second compound 0.0316 µM, first compound 3.16 µM
# [6] = second compound 0.0316 µM, first compound 10 µM
# [7] = second compound 0.1 µM, first compound 0.0316 µM
# [8] = second compound 0.1 µM, first compound 0.1 µM
# [9] = second compound 0.1 µM, first compound 0.316 µM
# [10] = second compound 0.1 µM, first compound 1 µM
# [11] = second compound 0.1 µM, first compound 3.16 µM
# [12] = second compound 0.1 µM, first compound 10 µM
# [13] = second compound 0.316 µM, first compound 0.0316 µM
# [14] = second compound 0.316 µM, first compound 0.1 µM
# [15] = second compound 0.316 µM, first compound 0.316 µM
# [16] = second compound 0.316 µM, first compound 1 µM
# [17] = second compound 0.316 µM, first compound 3.16 µM
# [18] = second compound 0.316 µM, first compound 10 µM
# [19] = second compound 1 µM, first compound 0.0316 µM
# [20] = second compound 1 µM, first compound 0.1 µM
# [21] = second compound 1 µM, first compound 0.316 µM
# [22] = second compound 1 µM, first compound 1 µM
# [23] = second compound 1 µM, first compound 3.16 µM
# [24] = second compound 1 µM, first compound 10 µM
# [25] = second compound 3.16 µM, first compound 0.0316 µM
# [26] = second compound 3.16 µM, first compound 0.1 µM
# [27] = second compound 3.16 µM, first compound 0.316 µM
# [28] = second compound 3.16 µM, first compound 1 µM
# [29] = second compound 3.16 µM, first compound 3.16 µM
# [30] = second compound 3.16 µM, first compound 10 µM
# [31] = second compound 10 µM, first compound 0.0316 µM
# [32] = second compound 10 µM, first compound 0.1 µM
# [33] = second compound 10 µM, first compound 0.316 µM
# [34] = second compound 10 µM, first compound 1 µM
# [35] = second compound 10 µM, first compound 3.16 µM
# [36] = second compound 10 µM, first compound 10 µM
# 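Further: spheroids exposed to the agents for seven days.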
# 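Wherever viability, T/C is given: percent of DMSO vehicle control viability which is 100%.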
smiles,measurement,setting,value
Nc1ccn(C2OC(CO)C(O)C2(F)F)c(=O)n1 (stereo unspecified) + Cc1cnc(CNC(=O)c2c(=O)c3ccc(N4CCCN(C)CC4)nc3n3c2sc2ccccc23)cn1,IC50,second compound 0.0316 µM,< 31.6 nM
same,IC50,second compound 0.1 µM,< 31.6 nM
same,IC50,second compound 0.316 µM,< 31.6 nM
same,IC50,second compound 1 µM,< 31.6 nM
same,IC50,second compound 3.16 µM,< 31.6 nM
same,IC50,second compound 10 µM,< 31.6 nM
same,"viability, T/C",[1],26.8%
same,"viability, T/C",[2],22.2%
same,"viability, T/C",[3],21.5%
same,"viability, T/C",[4],21.3%
same,"viability, T/C",[5],20.6%
same,"viability, T/C",[6],19.9%
same,"viability, T/C",[7],27.8%
same,"viability, T/C",[8],23.1%
same,"viability, T/C",[9],22.4%
same,"viability, T/C",[10],19.9%
same,"viability, T/C",[11],24.2%
same,"viability, T/C",[12],19.5%
same,"viability, T/C",[13],24.7%
same,"viability, T/C",[14],25.8%
same,"viability, T/C",[15],22.4%
same,"viability, T/C",[16],22.9%
same,"viability, T/C",[17],21.9%
same,"viability, T/C",[18],19.5%
same,"viability, T/C",[19],25.5%
same,"viability, T/C",[20],23.8%
same,"viability, T/C",[21],22.7%
same,"viability, T/C",[22],24%
same,"viability, T/C",[23],23%
same,"viability, T/C",[24],19.4%
same,"viability, T/C",[25],25.7%
same,"viability, T/C",[26],23.6%
same,"viability, T/C",[27],21.7%
same,"viability, T/C",[28],22%
same,"viability, T/C",[29],21.5%
same,"viability, T/C",[30],20.9%
same,"viability, T/C",[31],26.6%
same,"viability, T/C",[32],22.3%
same,"viability, T/C",[33],22.6%
same,"viability, T/C",[34],23.3%
same,"viability, T/C",[35],20.7%
same,"viability, T/C",[36],17.9%
O=C(NO)c1cnc(N2CCN(S(=O)(=O)c3ccc4ccccc4c3)CC2)nc1 + Cc1cnc(CNC(=O)c2c(=O)c3ccc(N4CCCN(C)CC4)nc3n3c2sc2ccccc23)cn1,IC50,second compound 0.0316 µM,109 nM
same,IC50,second compound 0.1 µM,< 31.6 nM
same,IC50,second compound 0.316 µM,< 31.6 nM
same,IC50,second compound 1 µM,< 31.6 nM
same,IC50,second compound 3.16 µM,< 31.6 nM
same,IC50,second compound 10 µM,< 31.6 nM
same,"viability, T/C",[1],54%
same,"viability, T/C",[2],53.5%
same,"viability, T/C",[3],33.2%
same,"viability, T/C",[4],15.1%
same,"viability, T/C",[5],12.3%
same,"viability, T/C",[6],4.21%
same,"viability, T/C",[7],48.3%
same,"viability, T/C",[8],42.8%
same,"viability, T/C",[9],31%
same,"viability, T/C",[10],16.3%
same,"viability, T/C",[11],10.7%
same,"viability, T/C",[12],4.01%
same,"viability, T/C",[13],40.8%
same,"viability, T/C",[14],42.9%
same,"viability, T/C",[15],23.7%
same,"viability, T/C",[16],14.1%
same,"viability, T/C",[17],7.68%
same,"viability, T/C",[18],1.96%
same,"viability, T/C",[19],40.4%
same,"viability, T/C",[20],36.3%
same,"viability, T/C",[21],22.4%
same,"viability, T/C",[22],7.98%
same,"viability, T/C",[23],3.91%
same,"viability, T/C",[24],0.11%
same,"viability, T/C",[25],37.8%
same,"viability, T/C",[26],34.1%
same,"viability, T/C",[27],20.5%
same,"viability, T/C",[28],0.25%
same,"viability, T/C",[29],0.07%
same,"viability, T/C",[30],0.11%
same,"viability, T/C",[31],31.9%
same,"viability, T/C",[32],27.6%
same,"viability, T/C",[33],21.5%
same,"viability, T/C",[34],0.17%
same,"viability, T/C",[35],0.14%
same,"viability, T/C",[36],0.18%
O=c1[nH]cc(F)c(=O)[nH]1 + Cc1cnc(CNC(=O)c2c(=O)c3ccc(N4CCCN(C)CC4)nc3n3c2sc2ccccc23)cn1,IC50,second compound 0.0316 µM,> 10000 nM
same,IC50,second compound 0.1 µM,1120 nM
same,IC50,second compound 0.316 µM,< 31.6 nM
same,IC50,second compound 1 µM,< 31.6 nM
same,IC50,second compound 3.16 µM,< 31.6 nM
same,IC50,second compound 10 µM,< 31.6 nM
same,"viability, T/C",[1],67%
same,"viability, T/C",[2],66.8%
same,"viability, T/C",[3],62.7%
same,"viability, T/C",[4],64.5%
same,"viability, T/C",[5],58.8%
same,"viability, T/C",[6],50.6%
same,"viability, T/C",[7],60.6%
same,"viability, T/C",[8],49.7%
same,"viability, T/C",[9],55.8%
same,"viability, T/C",[10],48.5%
same,"viability, T/C",[11],51%
same,"viability, T/C",[12],43.7%
same,"viability, T/C",[13],45.1%
same,"viability, T/C",[14],49.6%
same,"viability, T/C",[15],45.6%
same,"viability, T/C",[16],46.8%
same,"viability, T/C",[17],46.1%
same,"viability, T/C",[18],34.4%
same,"viability, T/C",[19],40.9%
same,"viability, T/C",[20],45.9%
same,"viability, T/C",[21],39.4%
same,"viability, T/C",[22],39.2%
same,"viability, T/C",[23],41.2%
same,"viability, T/C",[24],31.5%
same,"viability, T/C",[25],40.7%
same,"viability, T/C",[26],38%
same,"viability, T/C",[27],37%
same,"viability, T/C",[28],32.6%
same,"viability, T/C",[29],36.7%
same,"viability, T/C",[30],34.9%
same,"viability, T/C",[31],35.8%
same,"viability, T/C",[32],33.6%
same,"viability, T/C",[33],30.6%
same,"viability, T/C",[34],38.4%
same,"viability, T/C",[35],30.9%
same,"viability, T/C",[36],25%
